In patent publication US20070015780A1, “Method of treating cancer with azaspirane compositions” (priority 2003, published 2007):
Where a name gives a salt, the structure may show the parent alone.

Assay: Excretion and recovery of radioactivity after single oral administration, target dose 1 mg free base/kg
Format: in vivo, male Sprague Dawley rats
Design: Excretion of Radioactivity, Urine / Excretion of Radioactivity, Cage Wash: unit not given beside the values
Settings: for Recovery of Radioactivity, Carcass / Recovery of Radioactivity, GI Tract: at 168 hours
Excerpt: [^14C] N,N,-diethyl-8,8-dipropyl-2-azaspiro[4,5]decane-2-propanamine dimaleate salt, (“Compound II”) with a specific activity of 91 uCi/mg and chemical purity >99%, and non-radiolabeled dimaleate salt of N,N,-diethyl-8,8-dipropyl-2-azaspiro[4,5]decane-2-propanamine dimaleate (Compound 1) chemical purity >98%, respectively, were used in this study. The site of the radiocarbon label in Compound II is depicted by an asterisk in Formula II. The non-radiolabeled material was used for reference purposes. The radiolabeled material was stored at ca −80° C. in the dark and the non-radiolabeled material at ca −20° C. in the dark.
Three healthy male Sprague Dawley rats (Crl:CD(SD)BR), age ca 8-9 weeks, body weights at dosing 237-255 g, were supplied by Charles River (UK) Limited. The animals were housed in holding cages suitable for this species for 8 days prior to use. SDS Rat and Mouse Maintenance Diet No. 1, (Special Diets Services, Witham Essex), and mains quality water were available ad libitum throughout. The diet and water supplied to the animals were routinely analyzed for quality and no problems were detected. Holding and study areas had automatic control of light cycle and temperature. The actual range of temperature measured during the study was 17-25° C. with relative humidity measured at 60%.
The dose was prepared for oral administration on the day of dosing. […]
For each rat, an aliquot of the dose solution was administered orally by gavage. […] For each dose, the combined weight of dose and dosing equipment were recorded prior to dosing and the discharged dosing equipment was weighed after dosing. The concentration of radioactive material in each dose solution was also determined.
Immediately following dosing, the rats were placed into all glass metabolism cages suitable for the quantitative collection of excreta and expired air. All samples were collected into individual, uniquely labeled containers.
[…] The collection containers were cooled by solid CO2 during the first 48 hours after dosing.
[…] Collection containers were cooled by solid CO2 during the first 48 hours.
At the time of each feces collection, each cage was washed with water (ca 750 mL) and the washings were retained for radioassay. During the periods 0-24 h and 24-48 hours after dosing, expired air was passed through 2 serial traps containing ethanolamine:ethoxyethaonol (3:7, v/v) in order to effect the removal of CO2. The trap solvent was sampled for radioassay at the end of each collection period.
At 168 hours post dose, each animal was killed by CO2 narcosis and cervical dislocation. Gastrointestinal tracts were removed and retained separately from the carcasses in preparation for radioassay.
Duplicate aliquots of urine (ca 0.3 mL) and cage washings (ca 1 mL) were dispensed, diluted to 1 mL with distilled water (if considered necessary) and mixed with Quickzint 1 scintillation fluid (10 mL; Zinsser Analytic Maidenhead, UK).
Feces were homogenised in 1 to 2 volumes of water with the sample and homogenate weight recorded. Duplicate aliquots (ca 0.3 ) were taken from each sample and dispensed onto combustopads contained in combustocones (Canberra Packard Limited, Pangbourne, UK). When dry, these samples were combusted using a Packard Tri-Carb 306 Automatic Sample Oxidiser. The resultant ^14CO2 generated was collected by absorption in Carbo-Sorb® (8 mL; Canberra Packard Limited) to which Permafluor®E^+ scintillation fluid (10 mL; Canberra Packard Limited) was added.
For each rat, the carcass and gastro-intestinal tract with contents were solubilised in Soluene 350 (Canberra Packard). When dissolved, portions of the digest (ca 0.1 mL) were taken for liquid scintillation spectrometry. The volume was made up to 1 mL by the addition of methanol then 10 mL Quickzint was added and the samples counted as for the other liquid samples. […]

[1] = 168 hour collection period, #3 male

CCCC1(CCC)CCC2(CCN(CCCN(CC)CC)C2)CC1 [Compound II, [^14C] N,N,-diethyl-8,8-dipropyl-2-azaspiro[4,5]decane-2-propanamine dimaleate salt]
Excretion of Radioactivity, Urine (0-6 hours, #1 male): 0.1
Excretion of Radioactivity, Urine (0-6 hours, #2 male): 0.1
Excretion of Radioactivity, Urine (0-6 hours, #3 male): 0.1
Excretion of Radioactivity, Cage Wash (0-24 hours, #1 male): 0.1
Excretion of Radioactivity, Feces (0-24 hours, #1 male): 18.2
Excretion of Radioactivity, Cage Wash (0-24 hours, #2 male): 0.1
Excretion of Radioactivity, Feces (0-24 hours, #2 male): 14.7
Excretion of Radioactivity, Cage Wash (0-24 hours, #3 male): *<0.1
Excretion of Radioactivity, Feces (0-24 hours, #3 male): 17.7
Excretion of Radioactivity, Cage Wash (0-24 hours, Mean): ^+0.1
Excretion of Radioactivity, Feces (0-24 hours, Mean): 16.9
Dose recovered in expired air (0-48 hours): Less than 0.2 % of the dose
Excretion of Radioactivity, Cage Wash (0-168 hours, #1 male): 0.7
Excretion of Radioactivity, Feces (0-168 hours, #1 male): 64.0
Excretion of Radioactivity, Urine (0-168 hours, #1 male): 6.9
Excretion of Radioactivity, Cage Wash (0-168 hours, #2 male): 1.0
Excretion of Radioactivity, Feces (0-168 hours, #2 male): 65.7
Excretion of Radioactivity, Urine (0-168 hours, #2 male): 8.9
Excretion of Radioactivity, Cage Wash (0-168 hours, #3 male): 1.3
Excretion of Radioactivity, Feces (0-168 hours, #3 male): 66.7
Excretion of Radioactivity, Urine (0-168 hours, #3 male): 9.8
Excretion of Radioactivity, Cage Wash (0-168 hours, Mean): 1.0
Excretion of Radioactivity, Feces (0-168 hours, Mean): 65.5
Excretion of Radioactivity, Urine (0-168 hours, Mean): 8.5
Excretion of Radioactivity, Urine (6-24 hours, #1 male): 0.4
Excretion of Radioactivity, Urine (6-24 hours, #2 male): 0.5
Excretion of Radioactivity, Urine (6-24 hours, #3 male): 0.5
Excretion of Radioactivity, Urine (6-24 hours, Mean): 0.5
Excretion of Radioactivity, Cage Wash (24-48 hours, #1 male): 0.1
Excretion of Radioactivity, Feces (24-48 hours, #1 male): 16.3
Excretion of Radioactivity, Urine (24-48 hours, #1 male): 1.0
Excretion of Radioactivity, Cage Wash (24-48 hours, #2 male): <0.1
Excretion of Radioactivity, Feces (24-48 hours, #2 male): 17.2
Excretion of Radioactivity, Urine (24-48 hours, #2 male): 1.4
Excretion of Radioactivity, Cage Wash (24-48 hours, #3 male): 0.1
Excretion of Radioactivity, Feces (24-48 hours, #3 male): 14.5
Excretion of Radioactivity, Urine (24-48 hours, #3 male): 1.4
Excretion of Radioactivity, Cage Wash (24-48 hours, Mean): 0.1
Excretion of Radioactivity, Feces (24-48 hours, Mean): 16.0
Excretion of Radioactivity, Urine (24-48 hours, Mean): 1.3
Excretion of Radioactivity, Cage Wash (48-72 hours, #1 male): <0.1
Excretion of Radioactivity, Feces (48-72 hours, #1 male): 10.0
Excretion of Radioactivity, Urine (48-72 hours, #1 male): 1.2
Excretion of Radioactivity, Cage Wash (48-72 hours, #2 male): 0.2
Excretion of Radioactivity, Feces (48-72 hours, #2 male): 15.2
Excretion of Radioactivity, Urine (48-72 hours, #2 male): 1.5
Excretion of Radioactivity, Cage Wash (48-72 hours, #3 male): 0.2
Excretion of Radioactivity, Feces (48-72 hours, #3 male): 12.7
Excretion of Radioactivity, Urine (48-72 hours, #3 male): 1.7
Excretion of Radioactivity, Cage Wash (48-72 hours, Mean): 0.1
Excretion of Radioactivity, Feces (48-72 hours, Mean): 12.6
Excretion of Radioactivity, Urine (48-72 hours, Mean): 1.5
Excretion of Radioactivity, Cage Wash (72-96 hours, #1 male): 0.1
Excretion of Radioactivity, Feces (72-96 hours, #1 male): 7.5
Excretion of Radioactivity, Urine (72-96 hours, #1 male): 1.3
Excretion of Radioactivity, Cage Wash (72-96 hours, #2 male): 0.2
Excretion of Radioactivity, Feces (72-96 hours, #2 male): 7.8
Excretion of Radioactivity, Urine (72-96 hours, #2 male): 1.6
Excretion of Radioactivity, Cage Wash (72-96 hours, #3 male): 0.3
Excretion of Radioactivity, Feces (72-96 hours, #3 male): 8.0
Excretion of Radioactivity, Urine (72-96 hours, #3 male): 2.0
Excretion of Radioactivity, Cage Wash (72-96 hours, Mean): 0.2
Excretion of Radioactivity, Feces (72-96 hours, Mean): 7.8
Excretion of Radioactivity, Urine (72-96 hours, Mean): 1.6
Excretion of Radioactivity, Cage Wash (96-120 hours, #1 male): 0.1
Excretion of Radioactivity, Feces (96-120 hours, #1 male): 5.5
Excretion of Radioactivity, Urine (96-120 hours, #1 male): 1.2
Excretion of Radioactivity, Cage Wash (96-120 hours, #2 male): 0.2
Excretion of Radioactivity, Feces (96-120 hours, #2 male): 4.1
Excretion of Radioactivity, Urine (96-120 hours, #2 male): 1.5
Excretion of Radioactivity, Cage Wash (96-120 hours, #3 male): 0.2
Excretion of Radioactivity, Feces (96-120 hours, #3 male): 6.4
Excretion of Radioactivity, Urine (96-120 hours, #3 male): 1.6
Excretion of Radioactivity, Cage Wash (96-120 hours, Mean): 0.2
Excretion of Radioactivity, Feces (96-120 hours, Mean): 5.3
Excretion of Radioactivity, Urine (96-120 hours, Mean): 1.4
Excretion of Radioactivity, Cage Wash (120-144 hours, #1 male): 0.1
Excretion of Radioactivity, Feces (120-144 hours, #1 male): 3.5
Excretion of Radioactivity, Urine (120-144 hours, #1 male): 0.9
Excretion of Radioactivity, Cage Wash (120-144 hours, #2 male): 0.1
Excretion of Radioactivity, Feces (120-144 hours, #2 male): 3.5
Excretion of Radioactivity, Urine (120-144 hours, #2 male): 1.3
Excretion of Radioactivity, Cage Wash (120-144 hours, #3 male): 0.3
Excretion of Radioactivity, Feces (120-144 hours, #3 male): 4.3
Excretion of Radioactivity, Urine (120-144 hours, #3 male): 1.3
Excretion of Radioactivity, Cage Wash (120-144 hours, Mean): 0.2
Excretion of Radioactivity, Feces (120-144 hours, Mean): 3.8
Excretion of Radioactivity, Urine (120-144 hours, Mean): 1.2
Excretion of Radioactivity, Urine (144-162 hours, #1 male): 0.8
Excretion of Radioactivity, Urine (144-162 hours, #2 male): 1.0
Excretion of Radioactivity, Urine (144-162 hours, #3 male): 1.2
Excretion of Radioactivity, Urine (144-162 hours, Mean): 1.0
Excretion of Radioactivity, Cage Wash (144-168 hours, #1 male): 0.2
Excretion of Radioactivity, Feces (144-168 hours, #1 male): 3.0
Excretion of Radioactivity, Cage Wash (144-168 hours, #2 male): 0.2
Excretion of Radioactivity, Feces (144-168 hours, #2 male): 3.2
Excretion of Radioactivity, Cage Wash (144-168 hours, #3 male): 0.2
Excretion of Radioactivity, Feces (144-168 hours, #3 male): 3.1
Excretion of Radioactivity, Cage Wash (144-168 hours, Mean): 0.2
Excretion of Radioactivity, Feces (144-168 hours, Mean): 3.1
Recovery of Radioactivity, Total (168 hour collection period, #1 male): 96.7 % administered dose
Recovery of Radioactivity, Total (168 hour collection period, #2 male): 103.0 % administered dose
Recovery of Radioactivity, Cage Washings [1]: *1.3 % administered dose
Recovery of Radioactivity, Total [1]: 103.2 % administered dose
Recovery of Radioactivity, Total (168 hour collection period, Mean): 101.0 % administered dose
Recovery of Radioactivity, Expired air 1 (#1 male): *<0.1 % administered dose
Recovery of Radioactivity, Expired air 2 (#1 male): *<0.1 % administered dose
Recovery of Radioactivity, Expired air 1 (#2 male): *<0.1 % administered dose
Recovery of Radioactivity, Expired air 2 (#2 male): *<0.1 % administered dose
Recovery of Radioactivity, Expired air 1 (#3 male): *<0.1 % administered dose
Recovery of Radioactivity, Expired air 2 (#3 male): *<0.1 % administered dose
Recovery of Radioactivity, Expired air 1 (Mean): ^+<0.1 % administered dose
Recovery of Radioactivity, Expired air 2 (Mean): ^+<0.1 % administered dose
Recovery of Radioactivity, Carcass (#1 male): 11.3 % administered dose
Recovery of Radioactivity, GI Tract (#1 male): 13.8 % administered dose
Recovery of Radioactivity, Carcass (#2 male): 14.1 % administered dose
Recovery of Radioactivity, GI Tract (#2 male): 13.3 % administered dose
Recovery of Radioactivity, Carcass (#3 male): 14.9 % administered dose
Recovery of Radioactivity, GI Tract (#3 male): 10.5 % administered dose
Recovery of Radioactivity, Carcass (Mean): ~13.5 % administered dose
Recovery of Radioactivity, GI Tract (Mean): ~12.5 % administered dose
Dose recovered in excreta and cage washings (mean, full 168 hour collection period): 75.0%
Administered radioactive dose recovered (total) (range over three rats, 168 hours): 96.7-103.2%
Dose recovered in the excreta (up to 120 hours after dosing): ~66 % of the dose
